Entries after “also recorded” stand apart in the source; their conditions may differ.
What was measured:
[1] = tested on: HBV replication; experiment: HBV replication inhibition assay in HepDES19 cells (strand-preferential q-PCR); format: cell-based, Hepatitis B virus
[2] = molecular target: T1, HBV RNaseH (Hepatitis B virus genotype D subtype ayw, UniProt P03156); experiment: Detection of capsid-associated RNA:DNA heteroduplexes by Southern analysis; format: cell-based; parameters: expressed in transfected cells; host or cells: HepDES19 (HepG2 with a stably transfected HBV genotype D genome); conditions: HepDES19 cells, seven days; #89 at 4×EC50 (10.4 μM), #138 at 30 μM
Procedure: RNA:DNA heteroduplexes migrate as double-stranded products, but degradation of the RNA strand with exogenous RNase causes the DNAs to migrate as single-stranded species. To test for accumulation of RNA:DNA heteroduplexes, HepDES19 cells replicating HBV were treated with 4×EC50 (10.4 μM) of compound #89 and 30 μM compound #138 (negative control). HBV cores were harvested after seven days of compound treatment. Capsid-associated nucleic acids were purified and split into two pools; one pool was treated with RNaseA and the other pool was mock treated.
HepDES19 cells were plated in 100 mm dishes without tetracycline and incubated for 72 hours in the absence of tetracycline before addition of compound #89 at 4×EC50 (10.4 μM) and the negative control compound #138 at 30 μM; compound-containing media was replaced every three days. HBV nucleic acids were purified seven days after compound addition. HBV core particles were isolated by sedimentation through a sucrose cushion as described (Tavis et al., 1998). Cores were treated overnight with proteinase K (0.5 mg/mL) and 1.5% SDS at 37° C. Nucleic acids were purified by phenol-chloroform extraction and ethanol precipitation. The nucleic acids were split into two pools. One pool was treated with RNaseA (1.5 μg/μL) at 37° C. for 30 minutes and the other was mock-treated. […]
Target sequence in this assay (P03156 whole entry): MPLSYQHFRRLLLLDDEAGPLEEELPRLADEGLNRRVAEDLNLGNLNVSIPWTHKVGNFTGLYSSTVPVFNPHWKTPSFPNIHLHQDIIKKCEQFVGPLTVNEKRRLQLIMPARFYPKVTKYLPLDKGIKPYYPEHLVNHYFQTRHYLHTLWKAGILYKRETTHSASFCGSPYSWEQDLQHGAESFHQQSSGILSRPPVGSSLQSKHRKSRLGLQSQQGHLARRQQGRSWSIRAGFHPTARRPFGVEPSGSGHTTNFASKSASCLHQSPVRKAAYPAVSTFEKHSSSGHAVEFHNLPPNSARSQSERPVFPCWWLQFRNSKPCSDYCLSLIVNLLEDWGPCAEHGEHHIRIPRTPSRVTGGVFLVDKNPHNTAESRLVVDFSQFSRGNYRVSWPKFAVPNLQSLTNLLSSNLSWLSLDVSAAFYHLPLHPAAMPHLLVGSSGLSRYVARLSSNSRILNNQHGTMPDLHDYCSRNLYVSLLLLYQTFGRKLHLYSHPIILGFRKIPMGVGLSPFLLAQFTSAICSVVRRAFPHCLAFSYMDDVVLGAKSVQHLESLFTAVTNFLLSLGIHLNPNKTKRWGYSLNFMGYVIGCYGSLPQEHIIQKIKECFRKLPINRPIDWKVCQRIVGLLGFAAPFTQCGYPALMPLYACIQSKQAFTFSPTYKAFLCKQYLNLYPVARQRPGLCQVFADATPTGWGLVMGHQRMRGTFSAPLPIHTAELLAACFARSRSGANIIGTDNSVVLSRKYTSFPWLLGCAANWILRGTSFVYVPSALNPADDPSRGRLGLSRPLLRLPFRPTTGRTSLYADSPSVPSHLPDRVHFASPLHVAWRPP

[3] = molecular target: T1, HBV RNaseH; experiment: Molecular beacon RNaseH assay
Target sequence in this assay (P03156 671-832): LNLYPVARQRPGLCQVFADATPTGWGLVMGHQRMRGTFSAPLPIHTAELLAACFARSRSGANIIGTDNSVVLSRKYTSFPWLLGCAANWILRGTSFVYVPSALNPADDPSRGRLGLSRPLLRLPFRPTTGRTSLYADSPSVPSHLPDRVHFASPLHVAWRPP

## O=C1c2ccccc2C(=O)N1O [Compound 138]
[1]; HepDES19 cells
  HBV replication inhibition / activity: does not inhibit HBV replication; also recorded: inactive
[1]; Table 3, qualitative screen at 20 μM
  HBV replication inhibition (qualitative): − (No inhibition detected at 20 μM)
[2]
  accumulation of RNA:DNA heteroduplexes: unaltered by exogenous RNase treatment
[3]; 2.1 μg purified HBV RNaseH
  inhibition in the molecular beacon assay: had no effect on the rate of substrate degradation
[3]; Table 3, 0 to 500 μM
  Inhibition of HBV RNaseH, Molecular Beacon cleavage assay: − (No inhibition detected at 500 μM)
